Target: wild type (WT) A/M2 protein (Influenza A virus, UniProt P0DOF5)
Assay: cell-based

wild type (WT) A/M2 protein, sequence (P0DOF5 whole entry, looked up): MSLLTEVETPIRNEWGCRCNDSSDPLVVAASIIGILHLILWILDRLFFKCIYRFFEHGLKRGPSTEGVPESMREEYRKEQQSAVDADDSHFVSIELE

Question: How did the “M2 WT inhibitory activity relative to that of 4c” value (100 µM, 5a versus rimantadine dimer 4c) turn out when `CCCCNC(C)C12CC3CC(CC(C3)C1)C2` (centres unmarked) [Compound 5a, (1-Adamantan-1-yl-ethyl)-butyl-amine] was run?
Answer: approximately fourfold

Question: What about the inhibition at 100 µM (read-out: percentage inhibition of A/M2 current (WT)) of the same compound?
Answer: 40%

From article PMC5933338 (Drug Design, Development and Therapy, 2018)
